Patent US9409866B2, “Pyridine-2-amides useful as CB2 agonists” (Hoffmann-La Roche Inc., priority 2012, dated 2016)

How the values were obtained:
human CB2 receptors = human CB2 receptors (Homo sapiens (Human), UniProt P34972); experiment: functional cAMP assay, CHO cells expressing human CB2; assay type: cell-based; settings: read-out: Human CB2 EC50
Outline: (§1)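 CHO-hCB1/hCB2 cells, KRB + 1 mM IBMX preincubation 30 min 30 °C; cpd 30 min 30 °C; lysis + TR-FRET cAMP detection, 2 h RT; cAMP from std curve; EC50.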

human CB1 receptors = human CB1 receptors (Homo sapiens (Human), UniProt P21554); experiment: functional cAMP assay, CHO cells expressing human CB1; assay type: cell-based; settings: functional cAMP assay, CHO cells expressing human CB1; read-out: Human CB1 EC50
Outline: as §1

Sequence of human CB2 receptors (P34972 whole entry): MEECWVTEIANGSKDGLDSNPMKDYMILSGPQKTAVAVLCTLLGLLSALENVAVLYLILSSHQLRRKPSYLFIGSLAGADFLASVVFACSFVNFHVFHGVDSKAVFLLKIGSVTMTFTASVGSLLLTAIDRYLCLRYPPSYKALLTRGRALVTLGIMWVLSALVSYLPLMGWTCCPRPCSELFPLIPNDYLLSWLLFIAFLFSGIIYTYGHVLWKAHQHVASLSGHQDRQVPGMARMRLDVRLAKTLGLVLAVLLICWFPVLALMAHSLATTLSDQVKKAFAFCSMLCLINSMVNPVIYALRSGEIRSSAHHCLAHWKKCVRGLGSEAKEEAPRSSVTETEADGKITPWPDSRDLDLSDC
Sequence of human CB1 receptors (P21554 whole entry): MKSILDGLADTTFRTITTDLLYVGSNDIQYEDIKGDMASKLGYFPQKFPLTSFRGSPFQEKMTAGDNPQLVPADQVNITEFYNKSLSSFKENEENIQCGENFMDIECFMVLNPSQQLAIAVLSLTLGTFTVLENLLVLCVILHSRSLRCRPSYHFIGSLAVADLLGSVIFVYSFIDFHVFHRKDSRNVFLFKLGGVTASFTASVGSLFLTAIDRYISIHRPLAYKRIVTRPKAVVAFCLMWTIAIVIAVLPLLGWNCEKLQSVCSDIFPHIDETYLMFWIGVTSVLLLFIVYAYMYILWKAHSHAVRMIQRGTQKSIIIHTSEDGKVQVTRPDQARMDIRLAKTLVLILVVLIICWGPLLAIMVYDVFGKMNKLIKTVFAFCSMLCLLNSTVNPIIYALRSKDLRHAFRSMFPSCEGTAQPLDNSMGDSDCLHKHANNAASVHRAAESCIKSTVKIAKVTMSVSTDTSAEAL

| Compound | EC50 (human CB2 receptors) [nM] | EC50 (human CB1 receptors) [nM] |
| --- | --- | --- |
| CCC(C)(CO)NC(=O)c1cc(OCC2CC2)c(Cl)cn1 (stereo not drawn) [Example 26, 5-Chloro-4-cyclopropylmethoxy-pyridine-2-carboxylic acid (1-hydroxymethyl-1-methyl-propyl)-amide] | 47.6 | > 10000 |
| CC(C)C[C@@](C)(CO)NC(=O)c1cc(OCC2CC2)c(Cl)cn1 [Example 27, (−)-5-Chloro-4-cyclopropylmethoxy-pyridine-2-carboxylic acid (1-hydroxymethyl-1,3-dimethyl-butyl)-amide] | 22.4 | > 10000 |
| CC(C)C[C@](C)(CO)NC(=O)c1cc(OCC2CC2)c(Cl)cn1 [Example 28, (+)-5-Chloro-4-cyclopropylmethoxy-pyridine-2-carboxylic acid (1-hydroxymethyl-1,3-dimethyl-butyl)-amide] | 26.3 | > 10000 |
| CC(C)(C)[C@H](CO)NC(=O)c1cc(OCC2CC2)c(Cl)cn1 [Example 29, 5-Chloro-4-cyclopropylmethoxy-pyridine-2-carboxylic acid ((R)-1-hydroxymethyl-2,2-dimethyl-propyl)-amide] | 64.6 | > 10000 |
| CC[C@](C)(CO)NC(=O)c1cc(OCC2CC2)c(Cl)cn1 [Example 30, (−)-5-Chloro-4-cyclopropylmethoxy-pyridine-2-carboxylic acid (1-hydroxymethyl-1-methyl-propyl)-amide] | 19.2 | > 10000 |
| COC(=O)C(C)C(C)(C)NC(=O)c1cc(OCC2CC2)c(Cl)cn1 (stereo not drawn) [Example 31, Methyl 3-({[5-chloro-4-(cyclopropylmethoxy)pyridin-2-yl]carbonyl}amino)-2,3-dimethylbutanoate] | 9.5 | > 10000 |
| O=C(NC1(c2nccs2)COC1)c1cc(OCC2CC2)c(Cl)cn1 [Example 32, 5-Chloro-4-cyclopropylmethoxy-pyridine-2-carboxylic acid (3-thiazol-2-yl-oxetan-3-yl)-amide] | 74.6 | > 10000 |
| CCCC(C)(CO)NC(=O)c1cc(OCC2CC2)c(Cl)cn1 (stereo not drawn) [Example 33, 5-Chloro-4-cyclopropylmethoxy-pyridine-2-carboxylic acid (1-hydroxymethyl-1-methyl-butyl)-amide] | 24.4 | > 10000 |
| CNC(=O)[C@@H](C)C(C)(C)NC(=O)c1cc(OCC2CC2)c(Cl)cn1 [Example 34, (−)-5-Chloro-4-cyclopropylmethoxy-pyridine-2-carboxylic acid (1,1-dimethyl-2-methylcarbamoyl-propyl)-amide] | 268 | > 10000 |
| CNC(=O)[C@H](C)C(C)(C)NC(=O)c1cc(OCC2CC2)c(Cl)cn1 [Example 35, (+)-5-Chloro-4-cyclopropylmethoxy-pyridine-2-carboxylic acid (1,1-dimethyl-2-methylcarbamoyl-propyl)-amide] | 143 | > 10000 |
| O=C(NC1(c2ncco2)COC1)c1cc(OCC2CC2)c(Cl)cn1 [Example 36, 5-Chloro-4-cyclopropylmethoxy-pyridine-2-carboxylic acid (3-oxazol-2-yl-oxetan-3-yl)-amide] | 51.7 | > 10000 |
| CCC[C@@](C)(CO)NC(=O)c1cc(OCC2CC2)c(Cl)cn1 [Example 37, (−)-5-Chloro-4-cyclopropylmethoxy-pyridine-2-carboxylic acid (1-hydroxymethyl-1-methyl-butyl)-amide] | 16.7 | > 10000 |
| CC(C)(C)C(NC(=O)c1cc(OCC(F)(F)F)c(Cl)cn1)c1nccs1 (stereo not drawn) [Example 38, 5-Chloro-4-(2,2,2-trifluoro-ethoxy)-pyridine-2-carboxylic acid (2,2-dimethyl-1-thiazol-2-yl-propyl)-amide] | 40.8 | > 10000 |
| CC(C)(C)C(NC(=O)c1cc(OC2COC2)c(Cl)cn1)c1nccs1 (stereo not drawn) [Example 39, 5-Chloro-4-(oxetan-3-yloxy)-pyridine-2-carboxylic acid (2,2-dimethyl-1-thiazol-2-yl-propyl)-amide] | 128 | > 10000 |
| O=C(N[C@@H](c1cccnc1)C(F)(F)F)c1cc(OCc2ccc(F)cc2)c(Cl)cn1 [Example 40, 5-Chloro-4-(4-fluoro-benzyloxy)-pyridine-2-carboxylic acid ((S)-2,2,2-trifluoro-1-pyridin-3-yl-ethyl)-amide] | 5 | 90.1 |
| O=C(N[C@@H](c1cccnc1)C(F)(F)F)c1cc(Cc2ccc(F)cc2)c(Cl)cn1 [Example 41, 5-Chloro-4-(4-fluoro-benzyl)-pyridine-2-carboxylic acid ((S)-2,2,2-trifluoro-1-pyridin-3-yl-ethyl)-amide] | 3.3 | 145 |
| O=C(NC1(c2nccs2)COC1)c1cc(OCC2CC2)c(C2CC2)cn1 [Example 42, 5-Cyclopropyl-4-cyclopropylmethoxy-pyridine-2-carboxylic acid (3-thiazol-2-yl-oxetan-3-yl)-amide] | 11.6 | > 10000 |

| Compound | EC50 (human CB2 receptors) [nM] | EC50 (human CB1 receptors) [nM] |
| --- | --- | --- |
| CC(C)(C)C(NC(=O)c1cc(OCC2CC2)c(C2CC2)cn1)c1nccs1 (stereo not drawn) [Example 43, 5-Cyclopropyl-4-cyclopropylmethoxy-pyridine-2-carboxylic acid (2,2-dimethyl-1-thiazol-2-yl-propyl)-amide] | 3.2 | > 10000 |
| Cc1nc(C(C)(NC(=O)c2cc(OCC3CC3)c(C3CC3)cn2)C2CC2)no1 (stereo not drawn) [Example 44, 5-Cyclopropyl-4-cyclopropylmethoxy-pyridine-2-carboxylic acid [1-cyclopropyl-1-(5-methyl-[1,2,4]oxadiazol-3-yl)-ethyl]-amide] | 0.7 | > 10000 |
| CCC(CC)(NC(=O)c1cc(OCC2CC2)c(C2CC2)cn1)C(=O)NC [Example 45, 5-Cyclopropyl-4-cyclopropylmethoxy-pyridine-2-carboxylic acid (1-ethyl-1-methylcarbamoyl-propyl)-amide] | 17 | > 10000 |
| O=C(NC(c1ccccn1)C(F)(F)F)c1cc(OCC2CC2)c(C2CC2)cn1 (stereo not drawn) [Example 46, 5-Cyclopropyl-4-cyclopropylmethoxy-pyridine-2-carboxylic acid (2,2,2-trifluoro-1-pyridin-2-yl-ethyl)-amide] | 6.7 | > 10000 |
| CC(C)C[C@H](NC(=O)c1cc(OCC2CC2)c(C2CC2)cn1)C(N)=O [Example 47, 5-Cyclopropyl-4-cyclopropylmethoxy-pyridine-2-carboxylic acid ((S)-1-carbamoyl-3-methyl-butyl)-amide] | 11.8 | > 10000 |
| CNC(=O)[C@@H](NC(=O)c1cc(OCC(F)(F)F)c(C2CC2)cn1)C(C)(C)C [Example 48, 5-Cyclopropyl-4-(2,2,2-trifluoro-ethoxy)-pyridine-2-carboxylic acid ((S)-2,2-dimethyl-1-methylcarbamoyl-propyl)-amide] | 1.57 | 661 |
| Cc1nc(C(C)(NC(=O)c2cc(OCC(F)(F)F)c(C3CC3)cn2)C2CC2)no1 (stereo not drawn) [Example 49, 5-Cyclopropyl-4-(2,2,2-trifluoro-ethoxy)-pyridine-2-carboxylic acid [1-cyclopropyl-1-(5-methyl-[1,2,4]oxadiazol-3-yl)-ethyl]-amide] | 1.7 | > 10000 |
| CC(C)(C)C(NC(=O)c1cc(OCC(F)(F)F)c(C2CC2)cn1)c1nccs1 (stereo not drawn) [Example 50, 5-Cyclopropyl-4-(2,2,2-trifluoro-ethoxy)-pyridine-2-carboxylic acid (2,2-dimethyl-1-thiazol-2-yl-propyl)-amide] | 5.8 | > 10000 |
| O=C(NC(c1ccccn1)C(F)(F)F)c1cc(OCC(F)(F)F)c(C2CC2)cn1 (stereo not drawn) [Example 51, 5-Cyclopropyl-4-(2,2,2-trifluoro-ethoxy)-pyridine-2-carboxylic acid (2,2,2-trifluoro-1-pyridin-2-yl-ethyl)-amide] | 12.2 | > 10000 |
| CC(C)C[C@H](NC(=O)c1cc(OCC(F)(F)F)c(C2CC2)cn1)C(N)=O [Example 52, 5-Cyclopropyl-4-(2,2,2-trifluoro-ethoxy)-pyridine-2-carboxylic acid ((S)-1-carbamoyl-3-methyl-butyl)-amide] | 77.8 | > 10000 |
| O=C(NC1(CO)CC1)c1cc(OCC2CC2)c(N2CC(F)(F)C2)cn1 [Example 53, 4-Cyclopropylmethoxy-5-(3,3-difluoro-azetidin-1-yl)-pyridine-2-carboxylic acid (1-hydroxymethyl-cyclopropyl)-amide] | 72.6 | > 10000 |
| CCC(CC)(CO)NC(=O)c1cc(OCC(F)(F)F)c(C2CC2)cn1 [Example 54, 5-Cyclopropyl-4-(2,2,2-trifluoro-ethoxy)-pyridine-2-carboxylic acid (1-ethyl-1-hydroxymethyl-propyl)-amide] | 18.5 | > 10000 |
| O=C(NC1(CO)CCCCC1)c1cc(OCC(F)(F)F)c(C2CC2)cn1 [Example 55, 5-Cyclopropyl-4-(2,2,2-trifluoro-ethoxy)-pyridine-2-carboxylic acid (1-hydroxymethyl-cyclohexyl)-amide] | 15.7 | > 10000 |
| O=C(NCC1(O)CCCC1)c1cc(OCC2CC2)c(C2CC2)cn1 [Example 56, 5-Cyclopropyl-4-cyclopropylmethoxy-pyridine-2-carboxylic acid (1-hydroxy-cyclopentylmethyl)-amide] | 18.1 | > 10000 |
| O=C(NCC1(O)CCCCC1)c1cc(OCC2CC2)c(C2CC2)cn1 [Example 57, 5-Cyclopropyl-4-cyclopropylmethoxy-pyridine-2-carboxylic acid (1-hydroxy-cyclohexylmethyl)-amide] | 13 | > 10000 |
| CCC(O)CNC(=O)c1cc(OCC2CC2)c(C2CC2)cn1 (stereo not drawn) [Example 58, 5-Cyclopropyl-4-cyclopropylmethoxy-pyridine-2-carboxylic acid (2-hydroxy-butyl)-amide] | 63.7 | > 10000 |
